In patent publication US12378256B2, “Heterocyclic compound” (Takeda Pharmaceutical Company Limited, priority 2017, dated 2025):
pEC50: −log10 of the molar value.

Target: T1, human M1 receptor (hCHRM1) (Homo sapiens, UniProt P11229)
T1 construct: expressed in transfected cells; host or cells: CHO-K1
T1 sequence (P11229 1-460): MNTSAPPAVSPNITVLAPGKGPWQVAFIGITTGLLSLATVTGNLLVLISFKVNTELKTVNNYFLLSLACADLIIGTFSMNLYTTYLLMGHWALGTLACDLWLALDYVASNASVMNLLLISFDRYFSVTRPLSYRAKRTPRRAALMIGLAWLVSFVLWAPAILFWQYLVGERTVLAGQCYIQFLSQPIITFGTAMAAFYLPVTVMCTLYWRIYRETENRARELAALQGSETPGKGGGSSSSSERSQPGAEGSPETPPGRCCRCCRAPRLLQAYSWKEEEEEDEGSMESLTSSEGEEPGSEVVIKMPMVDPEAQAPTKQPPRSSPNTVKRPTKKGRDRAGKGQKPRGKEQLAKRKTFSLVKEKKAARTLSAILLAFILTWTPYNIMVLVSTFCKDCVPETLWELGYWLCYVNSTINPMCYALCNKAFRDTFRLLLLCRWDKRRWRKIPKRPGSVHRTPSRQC
Assay: Measurement of M1 receptor positive allosteric modulator (M1PAM) activity, calcium fluorescence with acetylcholine at EC20
Format: cell-based
Conditions: for activity (%) at 10 μM: 10 μM test compound, 100% = 1 μM acetylcholine, 0% = DMSO; for pEC50: CHO-K1 cells expressing hCHRM1, acetylcholine at EC20 (final 0.8-1.0 nM), read-out: IP value (inflection point in the concentration-dependent curve)
Procedure: Measurement of M1 Receptor Positive Allosteric Modulator (M1PAM) Activity
The activity of a test compound in the presence of acetylcholine at EC20 concentration (final concentration 0.8-1.0 nM), which affords an action corresponding to about 20% of the maximum activity, was measured as PAM activity. The method is as follows. CHO-K1 cells stably expressing a human M1 receptor (hCHRM1) were plated on a 384-well black clear bottom plate (BD Falcon) at 5,000 cells/well, and cultured in an incubator at 37° C., 5% CO2 for 1 day. The medium in the cell plate was removed, and assay buffer A containing calcium indicator (Recording medium (DOJINDO LABORATORIES), 0.1% BSA (Wako Pure Chemical Industries, Ltd.), 2.5 μg/mL Fluo-4 AM (DOJINDO LABORATORIES), 0.08% Pluronic F127 (DOJINDO LABORATORIES), 1.25 mM probenecid (DOJINDO LABORATORIES)) was added at 30 μL/well. The cells were left standing in the incubator at 37° C., 5% CO2 for 30 min, and further left standing at room temperature for 30 min. A test compound prepared by diluting with assay buffer B (HBSS (Invitrogen), 20 mM HEPES (Invitrogen), 0.1% BSA) containing 3.2-4.0 nM acetylcholine was added at 10 μL/well, and the fluorescence was measured by FDSS/μCELL (Hamamatsu Photonics K.K.) for 1 min every for 1 second. With the definition that the amount of change in the fluorescence on addition of acetylcholine (final concentration 1 μM) is 100% and that on addition of DMSO instead of a test compound is 0%, the activity (%) of the test compound was calculated, and the inflection point in the concentration-dependent curve of the test compound was calculated as IP values.

Structure (SMILES)	activity (%) at 10 μM	pEC50
Cn1cc(-c2ccc(C(F)c3cc(C(=O)N[C@H]4CCOC[C@@H]4O)nc4ccoc34)cn2)cn1 (single isomer, unassigned) [Example 51, 1,5-anhydro-2,3-dideoxy-3-(((7-(fluoro(6-(1-methyl-1H-pyrazol-4-yl)pyridin-3-yl)methyl)furo[3,2-b]pyridin-5-yl)carbonyl)amino)-L-threo-pentitol]	104%	9.06
Cn1ccc(-c2ccc(Cc3cc(C(=O)N[C@H]4COCC[C@@H]4O)nc4c3OCC4)cc2)n1 [Example 8, 1,5-anhydro-2,4-dideoxy-2-(((7-(4-(1-methyl-1H-pyrazol-3-yl)benzyl)-2,3-dihydrofuro[3,2-b]pyridin-5-yl)carbonyl)amino)-L-threo-pentitol]	100%	8.10
Cn1cc(-c2ccc(C(F)c3cc(C(=O)N[C@H]4CCOC[C@@H]4O)nc4ccoc34)cc2)nn1 (single isomer, unassigned) [Example 56, 1,5-anhydro-2,3-dideoxy-3-(((7-(fluoro(4-(1-methyl-1H-1,2,3-triazol-4-yl)phenyl)methyl)furo[3,2-b]pyridin-5-yl)carbonyl)amino)-L-threo-pentitol]	106%	7.38
Cc1cc(-c2ccc(Cc3cc(C(=O)N[C@H]4CCOC[C@@H]4O)nc4ccoc34)cc2)cnn1 [Example 43, 1,5-anhydro-2,3-dideoxy-3-(((7-(4-(6-methylpyridazin-4-yl)benzyl)furo[3,2-b]pyridin-5-yl)carbonyl)amino)-L-threo-pentitol]	110%	8.62
Cn1cc(-c2ccc(C(F)c3cc(C(=O)N[C@H]4CCCC[C@@H]4O)nc4ccoc34)cc2)nn1 (single isomer, unassigned) [Example 57]	99%	8.96
Cc1cc2nc(C(=O)N[C@H]3CCOC[C@@H]3O)cc(Cc3ccc(-c4cn(C)nn4)cc3)c2o1 [Example 64, 1,5-anhydro-2,3-dideoxy-3-(((2-methyl-7-(4-(1-methyl-1H-1,2,3-triazol-4-yl)benzyl)furo[3,2-b]pyridin-5-yl)carbonyl)amino)-L-threo-pentitol]	109%	8.62
O=C(O)CNC(=O)c1ccc(Cc2cc(C(=O)N[C@H]3CCOC[C@@H]3O)nc3c2OCC3)cc1F [Example 96, ((2-fluoro-4-((5-(((3R,4S)-3-hydroxytetrahydro-2H-pyran-4-yl)carbamoyl)-2,3-dihydrofuro[3,2-b]pyridin-7-yl)methyl)benzoyl)amino)acetic acid]	107%	7.96
O=C(N[C@H]1CCOC[C@@H]1O)c1cc(Cc2ccc(C(=O)NC3CC3)c(F)c2)c2c(n1)CCO2 [Example 82, 1,5-anhydro-3-(((7-(4-(cyclopropylcarbamoyl)-3-fluorobenzyl)-2,3-dihydrofuro[3,2-b]pyridin-5-yl)carbonyl)amino)-2,3-dideoxy-L-threo-pentitol]	110%	8.19
O=C(N[C@H]1CCOC[C@@H]1O)c1cc(Cc2ccc(-n3cccn3)cc2)c2occc2n1 [Example 48, 1,5-anhydro-2,3-dideoxy-3-(((7-(4-(1H-pyrazol-1-yl)benzyl)furo[3,2-b]pyridin-5-yl)carbonyl)amino)-L-threo-pentitol]	103%	8.96
Cc1nccc(-c2ccc(Cc3cc(C(=O)N[C@H]4CCOC[C@@H]4O)nc4ccoc34)cc2)n1 [Example 49, 1,5-anhydro-2,3-dideoxy-3-(((7-(4-(2-methylpyrimidin-4-yl)benzyl)furo[3,2-b]pyridin-5-yl)carbonyl)amino)-L-threo-pentitol]	104%	8.54
COCCNC(=O)c1ccc(C(C)c2cc(C(=O)N[C@H]3CCOC[C@@H]3O)nc3ccoc23)cc1F (stereo partly drawn) [Example 111, 1,5-anhydro-2,3-dideoxy-3-(((7-(1-(3-fluoro-4-((2-methoxyethyl)carbamoyl)phenyl)ethyl)furo[3,2-b]pyridin-5-yl)carbonyl)amino)-L-threo-pentitol]	107%	8.06
Cn1cc(-c2ccc(Cc3cc(C(=O)N[C@H]4CCOC[C@@H]4O)nc4c3OCC4)cn2)cn1 [Example 60, 1,5-anhydro-2,3-dideoxy-3-(((7-((6-(1-methyl-1H-pyrazol-4-yl)pyridin-3-yl)methyl)-2,3-dihydrofuro[3,2-b]pyridin-5-yl)carbonyl)amino)-L-threo-pentitol]	104%	8.80
Cn1cc(-c2ccc(Cc3cc(C(=O)N[C@H]4CCOC[C@@H]4O)nc4ccoc34)cn2)nn1 [Example 34, 1,5-anhydro-2,3-dideoxy-3-(((7-((6-(1-methyl-1H-1,2,3-triazol-4-yl)pyridin-3-yl)methyl)furo[3,2-b]pyridin-5-yl)carbonyl)amino)-L-threo-pentitol]	100%	8.62
CCNC(=O)c1ccc(Cc2cc(C(=O)N[C@H]3CCOC[C@@H]3O)nc3c2OCC3)cc1F [Example 81, 1,5-anhydro-2,3-dideoxy-3-(((7-(4-(ethylcarbamoyl)-3-fluorobenzyl)-2,3-dihydrofuro[3,2-b]pyridin-5-yl)carbonyl)amino)-L-threo-pentitol]	108%	8.28
Cn1cc(-c2ccc(Cc3cc(C(=O)N[C@H]4CCOC[C@@H]4O)nc4ccoc34)cc2)cn1 [Example 40, 1,5-anhydro-2,3-dideoxy-3-(((7-(4-(1-methyl-1H-pyrazol-4-yl)benzyl)furo[3,2-b]pyridin-5-yl)carbonyl)amino)-L-threo-pentitol]	98%	8.80
CNC(=O)c1ccc(Cc2cc(C(=O)N[C@H]3CCOC[C@@H]3O)nc3cc(C)oc23)cc1F [Example 65, 1,5-anhydro-2,3-dideoxy-3-(((7-(3-fluoro-4-(methylcarbamoyl)benzyl)-2-methylfuro[3,2-b]pyridin-5-yl)carbonyl)amino)-L-threo-pentitol]	106%	8.07
CC(C)(C)OCCNC(=O)c1ccc(Cc2cc(C(=O)N[C@H]3CCOC[C@@H]3O)nc3c2OCC3)cc1F [Example 89, 1,5-anhydro-3-(((7-(4-((2-tert-butoxyethyl)carbamoyl)-3-fluorobenzyl)-2,3-dihydrofuro[3,2-b]pyridin-5-yl)carbonyl)amino)-2,3-dideoxy-L-threo-pentitol]	110%	7.60
Cn1cc(-c2ccc(Cc3cc(C(=O)N[C@H]4CCCC[C@@H]4O)nc4ccoc34)cc2)nn1 [Example 23, N-((1S,2S)-2-hydroxycyclohexyl)-7-(4-(1-methyl-1H-1,2,3-triazol-4-yl)benzyl)furo[3,2-b]pyridine-5-carboxamide]	99%	8.82
Cn1cc(-c2ccc(Cc3cc(C(=O)N[C@H]4CCCC[C@@H]4O)nc4c3OCC4)cc2)nn1 [Example 47, N-((1S,2S)-2-hydroxycyclohexyl)-7-(4-(1-methyl-1H-1,2,3-triazol-4-yl)benzyl)-2,3-dihydrofuro[3,2-b]pyridine-5-carboxamide]	101%	8.74
O=C(N[C@H]1CCOC[C@@H]1O)c1cc(Cc2ccc(C(=O)NCc3ccc(O)cc3)c(F)c2)c2c(n1)CCO2 [Example 90, 1,5-anhydro-2,3-dideoxy-3-(((7-(3-fluoro-4-((4-hydroxybenzyl)carbamoyl)benzyl)-2,3-dihydrofuro[3,2-b]pyridin-5-yl)carbonyl)amino)-L-threo-pentitol]	113%	8.85
O=C(N[C@@H]1CCC(F)(F)C[C@H]1O)c1cc(Cc2ccc(-n3cccn3)cc2)c2c(n1)CCO2 (single isomer, unassigned) [Example 46, N-(trans-4,4-difluoro-2-hydroxycyclohexyl)-7-(4-(1H-pyrazol-1-yl)benzyl)-2,3-dihydrofuro[3,2-b]pyridine-5-carboxamide]	107%	8.37
